Like-named read-outs stand apart in the source and are kept apart here.
Assays:
[1] = Metabolic stability in mouse liver microsomes (MLM); format: in vitro ADME, CD-1 mouse; settings: CD-1
Method: (§1) Plasma and metabolic stability tests were performed by Eurofins Discovery. For the plasma stability assay, test compounds were incubated in CD-1 mouse plasma for 0, 0.5, 1, 1.5, and 2 h at 37 °C at a concentration of 1 μM. For the metabolic stability assay, test compounds were incubated at 37 °C in either (1) CD-1 mouse liver microsomes (MLM) (0.1 mg/mL) at a concentration of 0.1 μM for 0, 15, 30, 45, and 60 min or (2) CD-1 mouse hepatocytes (MH) (0.7 million viable cells/mL) at a concentration of 1 μM for 0, 0.5, 1, 1.5, and 2 h. At the respective time points, acetonitrile was added to the incubation mixture followed by centrifugation. Samples were analyzed by HPLC-MS/MS and peak areas were recorded for each analyte. Compound stability, expressed as the percentage of parent compound remaining, was calculated by comparing the peak area of the compound at each time point relative to that of the 0h time point. Percentage compound remaining is plotted as a function of time as a logarithmic curve. Half-life (t 1/2) is estimated from the slope of the initial linear range of the curve, assuming first-order kinetics. […] Both plasma and metabolic assay experiments were performed once with 2 replicate samples each.

AURKA = biological target: T1, AURKA (Homo sapiens, UniProt O14965); test: AURKA degradation, Simple Western; format: cell-based; parameters: Representative Western blot showing levels of endogenous proteins MDR1, MYCN, AURKA, and CRBN in untreated cell lines; endogenous in cells; host or cells: NGP, IMR-32, SJNB-8, SK-N-BE(2)-C, SK-N-SH, SK-N-AS, SJNB-1, RPE, HEK293T; settings: for pDC50: AURKA degradation; for DC50: read-out: AURKA DC50;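 on AURKA Degradation 24h @1000nM: measured in NGP neuroblastoma cells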;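 on AURKA Degradation 24h @100nM: measured in NGP neuroblastoma cells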
T1 sequence (O14965 1-403): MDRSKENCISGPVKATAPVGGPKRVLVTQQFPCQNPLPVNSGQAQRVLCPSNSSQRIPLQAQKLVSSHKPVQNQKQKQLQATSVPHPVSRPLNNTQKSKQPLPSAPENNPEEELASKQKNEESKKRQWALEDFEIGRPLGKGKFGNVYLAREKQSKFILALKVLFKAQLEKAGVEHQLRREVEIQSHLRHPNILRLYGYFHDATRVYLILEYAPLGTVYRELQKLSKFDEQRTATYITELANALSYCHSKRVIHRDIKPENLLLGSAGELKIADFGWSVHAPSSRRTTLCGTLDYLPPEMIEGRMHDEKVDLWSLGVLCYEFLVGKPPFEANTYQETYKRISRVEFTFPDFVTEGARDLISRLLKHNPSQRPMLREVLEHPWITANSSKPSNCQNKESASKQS
Method: Cells were seeded in T-25 flasks at different densities ranging from 1 to 2 million cells per flask and allowed to adhere for 1–2 days. In experiments involving compound treatment, this was done by medium replacement containing the compound(s) of interest in their corresponding concentrations. In competition binding experiments, cells were first pretreated with an excess of MK-5108, thalidomide or MG-132 for 1 h by shaking gently at room temperature prior to addition of SK4454 or SK5527. All samples were normalized to contain the same percentage of DMSO as the negative DMSO controls. Cells were harvested on ice at their respective time points by scraping, washed with ice-cold PBS to collect remaining cells, and centrifuged (2500 rpm, 4 °C). A second washing and centrifugation step was performed prior to collection of the final cell pellets which were then snap-frozen in liquid nitrogen and kept frozen at −80 °C until further processing. Lysis of cell pellets occurred in cold RIPA buffer (0.5% w/v Sodium Deoxycholate, 150 mM NaCl, 50 mM TrisHCl pH 7.5, 0.1% w/v SDS, 1% w/v NP-40) supplemented with protease and phosphatase inhibitors (Roche, #11836145001, #04906845001) by rotating gently at 4 °C for 1h, followed by a centrifugation step for 10 min (10,000 rpm, 4 °C). The supernatant was collected and concentrations of the obtained protein lysates were measured using the Pierce BCA Protein Assay Kit (Thermo Fisher Scientific, #23227).
Simple Western analyses were performed with the Wes instrument (Bio-Techne) using the 12–230 kDa Wes Separation module and the EZ standard pack reagent 1 (Biotechne, #SM-W001, #PS-ST01EZ-8) following the manufacturer’s protocol. Protein lysates were loaded at 0.8 μg/μL under denaturing conditions (0.2 μg/μL for MYCN detection). Chemiluminescence peaks were generated by the Compass Software (Bio-Techne) and the area under the peaks calculated using the Gaussian fit method. Per lane, quantified data were always normalized to that of the loading control (Vinculin) prior to calculating fold changes relative to the negative DMSO control. Mean fold changes are calculated from 3 individual experiments. A list of the primary and secondary antibodies used can be found in the Supporting Information (Supplementary Table S7).
Graphs were generated using GraphPad Prism Software (version 10.1.2) or RStudio (R-4.3.2). All dose–response curves were computed on GraphPad Prism using the Variable Slope (four parameters) equation. Absolute half-maximal degradation (DC50), growth inhibitory (GI50) and enzymatic inhibitory (IC50) concentrations, as well as inhibition constants (Ki) were derived from dose–response curves via interpolation. Statistical tests were performed on GraphPad Prism and detailed in the figure legends. Unless otherwise stated, “n” in the figure legends indicates the number of independent experiments conducted at different times.

NGP = test: IncuCyte live-cell imaging, antiproliferative effect; format: cell-based; settings: Homo sapiens, 72 h
Text: Human neuroblastoma cell lines NGP, IMR-32, SJNB-8, SK-N-BE(2)-C, SJNB-1, SK-N-SH and SK-N-AS, as well as benign immortalized cell lines RPE and HEK293T were either bought commercially or obtained through research laboratories. […] Screening for mycoplasma contamination occurred routinely on the cells. Human neuroblastoma cell lines SH-SY5Y_shABCB1 & SH-SY5Y_shNTC were generated by transduction with pLKO.1-ABCB1_TRCN0000059683 shRNA (Sigma MISSION SHCLND) or pLKO.1-puro NT shRNA (Sigma MISSION SHC002) vectors respectively (Supplementary Table S6), packaged using Lenti-X293T (Clontech). Transduced cells were selected with 2 μg/mL puromycin. These cells were cultured in DMEM 4.5 g/L D-Glucose, L-Glutamine and 110 mg/L Sodium Pyruvate (Gibco, #11995065) supplemented with 10% fetal bovine serum, 1× Antibiotic-Antimycotic solution (Sigma-Aldrich, #A5955) and 1× MEM nonessential amino acids (Sigma-Aldrich, #M7145). Incubation of all cells occurred at 37 °C and 5% CO2.
Neuroblastoma cells were seeded in 384-well plates at different densities ranging from 1200 to 5000 cells/well and allowed to adhere overnight. RPE and HEK293T were seeded at 200 and 600 cells/well, respectively. Compound treatment was performed using the D300e Digital Dispenser (Tecan) in duplicate or triplicate and cell confluency was monitored over time using the IncuCyte Live-cell imaging system (Sartorius). […] Mean normalized confluences were calculated from 3 individual experiments.
All dose–response curves were computed on GraphPad Prism using the Variable Slope (four parameters) equation. Absolute half-maximal degradation (DC50), growth inhibitory (GI50) and enzymatic inhibitory (IC50) concentrations, as well as inhibition constants (Ki) were derived from dose–response curves via interpolation. Statistical tests were performed on GraphPad Prism and detailed in the figure legends. Unless otherwise stated, “n” in the figure legends indicates the number of independent experiments conducted at different times.

Plasma stability assay = format: in vitro ADME, CD-1 mouse; settings: for half-life at 1 μM: read-out: plasma t1/2
Method: as §1

## O=C1CCC(N2C(=O)c3cccc(N4CCN(CCOCCOCCNC(=O)[C@]5(Cc6cccc(Nc7nccs7)n6)CC[C@@H](Oc6cccc(Cl)c6F)CC5)CC4)c3C2=O)C(=O)N1 (stereo partly shown) [PROTAC 1]
[1]
  microsomal CLint at 0.1 μM: 1480 µL/min/mg
AURKA
  AURKA Degradation 24h @100nM: 72
  AURKA Degradation 24h @1000nM: 66
NGP; read-out: GI50 72h, 72h
  GI50: 63 nM
NGP; read-out: pGI50 (converted)
  GI50: 63.1 nM
Plasma stability assay; CD-1, mouse, plasma
  half-life at 1 μM: > 2 h

## O=C1CCC(N2C(=O)c3cccc(OCCOCCOCCN4CCN(C(=O)[C@]5(Cc6cccc(Nc7nccs7)n6)CC[C@@H](Oc6cccc(Cl)c6F)CC5)CC4)c3C2=O)C(=O)N1 (stereo partly shown) [PROTAC 3]
[1]
  microsomal CLint at 0.1 μM: 456 µL/min/mg
AURKA
  AURKA Degradation 24h @100nM: 80
  AURKA Degradation 24h @1000nM: 77
  pDC50: 8,06
  DC50: 8.7 nM
AURKA; NGP, 24 h treatment
  Dmax: 81%
NGP; read-out: GI50 72h, 72h
  GI50: 42 nM
NGP; read-out: pGI50 (converted)
  GI50: 41.7 nM
Plasma stability assay; CD-1 mouse plasma, 1 μM, 37 °C
  half-life at 1 μM: 1.32 h

## O=C1CCC(N2C(=O)c3ccc(N4CCN(CCNC(=O)[C@]5(Cc6cccc(Nc7nccs7)n6)CC[C@@H](Oc6cccc(Cl)c6F)CC5)CC4)cc3C2=O)C(=O)N1 (stereo partly shown) [PROTAC 4]
[1]
  microsomal CLint at 0.1 μM: 656 µL/min/mg
AURKA
  AURKA Degradation 24h @100nM: 85
  AURKA Degradation 24h @1000nM: 93
  pDC50: 8,32
  DC50: 4.8 nM
AURKA; NGP, 24 h treatment
  Dmax: 97%
  DC50: 5 nM
NGP; read-out: GI50 72h, 72h
  GI50: 44 nM
NGP; read-out: pGI50 (converted)
  GI50: 44.7 nM
Plasma stability assay; CD-1 mouse plasma, 1 μM, 37 °C
  half-life at 1 μM: > 2 h
Plasma stability assay; plasma
  plasma t1/2: > 2 h

## O=C1CCN(c2ccc(N3CCN(C4CCN(C(=O)[C@]5(Cc6cccc(Nc7nccs7)n6)CC[C@@H](Oc6cccc(Cl)c6F)CC5)C4)CC3)nc2)C(=O)N1 (stereo partly shown) [PROTAC 26]
AURKA
  AURKA Degradation 24h @100nM: 71
  AURKA Degradation 24h @1000nM: 71
  pDC50: 8,3
  DC50: 5 nM
NGP; read-out: GI50 72h, 72h
  GI50: 45 nM
NGP; read-out: pGI50 (converted)
  GI50: 44.7 nM

## Cc1cc(Nc2ccc(F)c(CC3(C(=O)N4CCC(CN5CCC(c6ccc(CN7CCC(=O)NC7=O)cn6)CC5)CC4)CCN(Cc4cccc(Cl)c4F)CC3)n2)n[nH]1 [PROTAC 30]
AURKA
  AURKA Degradation 24h @100nM: 42
  AURKA Degradation 24h @1000nM: 59
AURKA; NGP, 24 h treatment
  AURKA degradation activity (in words): weak degradation potency
  Dmax: 59%
NGP; read-out: GI50 72h, 72h
  GI50: 158 nM
NGP; read-out: pGI50 (converted)
  GI50: 158 nM

## Cc1cc(Nc2ccc(F)c(CC3(C(=O)N4CC(CN5CCN(c6ccc(N7CCC(=O)NC7=O)cn6)CC5)C4)CCN(Cc4cccc(Cl)c4F)CC3)n2)n[nH]1 [PROTAC 31]
AURKA
  AURKA Degradation 24h @100nM: 80
  AURKA Degradation 24h @1000nM: 89
NGP; read-out: GI50 72h, 72h
  GI50: 98 nM
NGP; read-out: pGI50 (converted)
  GI50: 97.7 nM

## Cc1cc(Nc2ccc(F)c(CC3(C(=O)N4CCC(F)(C(=O)N5CCN(c6ccc(N7CCC(=O)NC7=O)cn6)CC5)CC4)CCN(Cc4cccc(Cl)c4F)CC3)n2)n[nH]1 [PROTAC 34]
AURKA
  AURKA Degradation 24h @100nM: 83
  AURKA Degradation 24h @1000nM: 91
NGP; read-out: GI50 72h, 72h
  GI50: 84 nM
NGP; read-out: pGI50 (converted)
  GI50: 83.2 nM

## Cc1cc(Nc2ccc(F)c(CC3(C(=O)N4CC(N5CCC(c6ccc(N7CCC(=O)NC7=O)cn6)CC5)C4)CCN(Cc4cccc(Cl)c4F)CC3)n2)n[nH]1 [PROTAC 35]
AURKA
  AURKA Degradation 24h @100nM: 62
  AURKA Degradation 24h @1000nM: 69
NGP; read-out: GI50 72h, 72h
  GI50: 332 nM
NGP; read-out: pGI50 (converted)
  GI50: 331 nM

## Cc1cc(Nc2ccc(F)c(CC3(C(=O)N4CCC(CN5CCC(c6ccc(N7CCC(=O)NC7=O)cn6)CC5)CC4)CCN(Cc4cccc(Cl)c4F)CC3)n2)n[nH]1 [PROTAC 36]
AURKA
  AURKA Degradation 24h @100nM: 58
  AURKA Degradation 24h @1000nM: 78
NGP; read-out: GI50 72h, 72h
  GI50: 60 nM
NGP; read-out: pGI50 (converted)
  GI50: 60.3 nM

## Cc1cc(Nc2ccc(F)c(CC3(C(=O)N4CCC(F)(C(=O)N5CCC(c6ccc(N7CCC(=O)NC7=O)cn6)CC5)CC4)CCN(Cc4cccc(Cl)c4F)CC3)n2)n[nH]1 [PROTAC 38]
AURKA
  AURKA Degradation 24h @100nM: 82
  AURKA Degradation 24h @1000nM: 90
NGP; read-out: GI50 72h, 72h
  GI50: 146 nM
NGP; read-out: pGI50 (converted)
  GI50: 145 nM

Reference: PMC12670405, “Second-Generation AURKA-Targeting PROTACs: Structural Optimization toward in Vivo Degradation in Neuroblastoma” (Journal of Medicinal Chemistry, 2025)
